Laboratory results published in US20250288548A1, “INTRANASAL BACLOFEN” (THE REGENTS OF THE UNIVERSITY OF CALIFORNIA, priority 2022, published 2025).

How the values were obtained:
[1] = enteral doses ranging from 30 to 90 mg; cited from earlier work
[2] = at therapeutically effective intrathecal concentrations; cited from earlier work
[3] = test system: patients with new acquired brain injury; assay: Intranasal baclofen study in about 40 hospitalized patients (measured torque response, clinical response); assay type: in vivo, human
Description: FIG. 1 represents the summarized results of a study of about 40 patients. Grey bars represent patients treated with nasal baclofen, and white bars represent placebo. Bars to the left (negative) represent reduced tone, and right (positive) is worse tone. The middle line is no change. Statistically significant results are provided with error bars in this figure.
The first bar chart from left to right is baseline compared to visit 2 low dose (250 mcg). The second bar chart from left to right is baseline compared to visit 3 moderate dose (1000 mcg). The third bar chart from left to right is baseline compared to visit 4 high dose (2000 mcg). The fourth bar chart from left to right is baseline compared to visit 5 weaned off back to baseline (providing some residual effect). The p-values for the third panel, which represents the high dose are: Treatment p-value 0.004959, and Control p-value 0.232.
Forty (40) hospitalized patients with new acquired brain injury acutely treated in the PICU have been treated with intranasal baclofen. Aqueous intranasal solutions comprising 250 mcg, 1000 mcg, and/or 2000 mcg of baclofen and […] of sodium chloride per mL exploiting the nasal pathway have delivered baclofen to the CNS by circumventing the BBB. […]

[4] = excised bovine nasal tissues; concentration independent transport, no polarized flux; cited from earlier work
[5] = test system: patient with increased tone after explantation of intrathecal baclofen pump; assay: Individual intranasal baclofen test dose in PICU patient; assay type: in vivo, human; settings: gablofen 2-50 mcg vials delivered intranasally as one administration; all enteral medications held
Description: A patient was admitted to a pediatric intensive care unit (PICU) due to increased tone after the patient had underwent surgical explantation of an intrathecal baclofen pump. The patient was on maximum doses of several enteral medications including enteral baclofen. They were given a test dose of intranasal baclofen administered in the PICU using commercially prepared intrathecal baclofen for test dose (gablofen 2-50 mcg vials delivered intranasally as one administration).

[6] = solutions containing phosphate, sulfate, potassium, or magnesium; per U.S. Pat. No. 9,180,108 (also printed: greater than 4, 5, 6, 7 mg/mL); cited from earlier work

NCC(CC(=O)O)c1ccc(Cl)cc1 (centres unmarked) [baclofen, 4-amino-3-(p-chlorophenyl) butyric acid]
CSF levels [1]: 0.012 to 0.096 µg/mL | plasma levels [1]: 0.05 to 0.65 µg/mL | plasma concentrations with intrathecal injection relative to oral/enteral administration [2]: 100 times less | response compared with enteral baclofen ([3]; intranasal 250, 1000 and/or 2000 mcg solutions, versus maximized enteral baclofen dose (>90 mg/day)): far greater than that observed with enteral baclofen | sedation compared with enteral baclofen ([3]; intranasal administration): far less sedation | mechanism of absorption across nasal tissues [4]: primarily absorbed via simple passive diffusion | change in tone after intranasal test dose [5]: Significant improvement in tone | concentration of baclofen that can be dissolved [6]: greater than 2 mg/mL
